The NIST ThermoML archive (doi:10.1021/je050021e)
± gives the expanded uncertainty stated by the source.

Assay: xn = mol fraction of the nth substance listed
Details: Liquid; for viscosity: 101 kPa; for mass density: 101.3 kPa

COCCOCCOCCOC [2,5,8,11-tetraoxadodecane] + O
Details	mass density, 303.15 K [kg/m3]	mass density, 313.15 K [kg/m3]	mass density, 323.15 K [kg/m3]	mass density, 333.15 K [kg/m3]	mass density, 343.15 K [kg/m3]	viscosity, 303.15 K [mPa·s]	viscosity, 313.15 K [mPa·s]	viscosity, 323.15 K [mPa·s]	viscosity, 333.15 K [mPa·s]	viscosity, 343.15 K [mPa·s]
x1 = 0.0198	1004.97 ± 0.1	1000.31 ± 0.1	995.02 ± 0.1	989.18 ± 0.1	982.78 ± 0.11	1.38 ± 0.03	1.09 ± 0.03	0.876 ± 0.021	0.728 ± 0.018	0.617 ± 0.016
x1 = 0.05	1015.35 ± 0.13	1008.77 ± 0.12	1001.79 ± 0.12	994.39 ± 0.12	986.6 ± 0.12	2.38 ± 0.05	1.79 ± 0.04	1.39 ± 0.03	–	0.922 ± 0.022
x1 = 0.07	1019.1 ± 0.14	1011.54 ± 0.14	1003.67 ± 0.14	995.46 ± 0.14	986.96 ± 0.14	2.99 ± 0.07	2.19 ± 0.05	1.67 ± 0.04	1.33 ± 0.03	1.08 ± 0.03
x1 = 0.1	1020.68 ± 0.17	1012.19 ± 0.17	1003.47 ± 0.16	994.52 ± 0.16	985.33 ± 0.16	3.6 ± 0.08	2.6 ± 0.06	1.96 ± 0.04	1.53 ± 0.04	1.24 ± 0.03
x1 = 0.2	1012.62 ± 0.26	1003.21 ± 0.25	993.71 ± 0.25	984.05 ± 0.25	974.27 ± 0.25	3.76 ± 0.08	2.8 ± 0.06	2.1 ± 0.05	1.66 ± 0.038	1.34 ± 0.03
x1 = 0.3	1002.98 ± 0.35	993.51 ± 0.34	983.93 ± 0.34	974.23 ± 0.34	964.41 ± 0.34	3.13 ± 0.07	2.39 ± 0.05	1.88 ± 0.04	1.52 ± 0.04	1.26 ± 0.03
x1 = 0.4	995.48 ± 0.44	985.98 ± 0.43	976.37 ± 0.43	966.69 ± 0.43	956.86 ± 0.43	2.67 ± 0.06	2.09 ± 0.05	1.69 ± 0.04	1.4 ± 0.03	1.17 ± 0.03
x1 = 0.5	990.09 ± 0.53	980.57 ± 0.53	970.93 ± 0.52	961.2 ± 0.52	951.36 ± 0.52	2.38 ± 0.05	1.94 ± 0.04	1.6 ± 0.04	1.3 ± 0.03	1.1 ± 0.03
x1 = 0.6	985.94 ± 0.62	976.37 ± 0.62	966.77 ± 0.61	957.06 ± 0.61	947.25 ± 0.6	2.14 ± 0.05	1.73 ± 0.04	1.44 ± 0.03	1.21 ± 0.03	1.04 ± 0.03
x1 = 0.7	982.66 ± 0.72	973.09 ± 0.71	963.5 ± 0.71	953.78 ± 0.7	943.99 ± 0.69	1.99 ± 0.05	1.65 ± 0.04	1.37 ± 0.03	1.16 ± 0.03	0.998 ± 0.025
x1 = 0.8	979.8 ± 0.81	970.25 ± 0.8	960.68 ± 0.8	950.98 ± 0.79	941.33 ± 0.78	1.9 ± 0.05	1.58 ± 0.04	1.32 ± 0.03	1.13 ± 0.03	0.976 ± 0.025
x1 = 0.9	977.61 ± 0.91	968.06 ± 0.9	958.5 ± 0.89	948.9 ± 0.88	939.3 ± 0.87	1.82 ± 0.04	1.51 ± 0.04	1.27 ± 0.03	1.1 ± 0.03	0.952 ± 0.024
x1 = 1	975.86 ± 1	966.36 ± 0.99	956.85 ± 0.98	947.32 ± 0.97	937.72 ± 0.96	1.77 ± 0.04	1.48 ± 0.04	1.26 ± 0.03	1.08 ± 0.03	0.945 ± 0.025
